# According to ChEMBL document CHEMBL1137931, “Anti-AIDS agents. Part 58: synthesis and anti-HIV activity of 1-thia-di-O-(-)-camphanoyl-(+)-cis-khellactone (1-thia-DCK) analogues” (Bioorg Med Chem Lett, 2004):
# Legend:
# H9 [1] = assay: Concentration required to inhibit uninfected H9 cell growth by 50%; format: functional, cell-based; conditions: Homo sapiens
# [2] = Therapeutic index expressed as IC50/EC50; conditions: read-out: TI
# H9 [3] = assay: Concentration required to inhibit HIV-1 replication by 50% in acutely infected H9 lymphocytes; NA means not active; format: functional, cell-based, Homo sapiens
# H9 [4] = assay: Concentration required to inhibit HIV-1 replication by 50% in acutely infected H9 lymphocytes; format: functional, cell-based; conditions: Homo sapiens
SMILES,EC50 (H9 [3]),EC50 (H9 [4]),IC50 (H9 [1]),selectivity ratio [2]
Cc1cc(=O)sc2c3c(ccc12)OC[C@H](OC(=O)C12CCC(C)(C(=O)O1)C2(C)C)[C@@H]3OC(=O)C12CCC(C)(C(=O)O1)C2(C)C (stereo not given in full),–,–,194 µM,62.3
Cc1cc(=O)sc2c3c(ccc12)OCC=C3,–,–,478 µM,62.3
Cc1cc(=O)sc2c3c(ccc12)OC[C@H](O)[C@@H]3O,–,–,340 µM,11.1
Cc1cc(=O)sc2c3c(ccc12)OC(C)(C)[C@H](OC(=O)C12CCC(C)(C(=O)O1)C2(C)C)[C@@H]3OC(=O)C12CCC(C)(C(=O)O1)C2(C)C (stereo not given in full),–,120 µM,169 µM,–

# More lines, main results first:
EC50 (H9 [3]),EC50 (H9 [4]),SMILES,IC50 (H9 [1]),selectivity ratio [2]
Not Active,–,Cc1cc(=O)sc2c3c(ccc12)OC(C)(C)[C@H](O)[C@@H]3O,302 µM,–
–,0.000256 µM,CC1(C)Oc2ccc3ccc(=O)oc3c2[C@@H](OC(=O)C23CCC(C)(C(=O)O2)C3(C)C)[C@H]1OC(=O)C12CCC(C)(C(=O)O1)C2(C)C (stereo not given in full),–,137000
Not Active,–,Cc1cc(=O)sc2c3c(ccc12)OC(C)(C)C=C3,339 µM,–
–,0.045 µM,Cc1cn([C@H]2C[C@H](N=[N+]=[N-])[C@@H](CO)O2)c(=O)[nH]c1=O [ZIDOVUDINE],–,–
